Test results: patent publication US12691112B2, “FGFR tyrosine kinase inhibitors for the treatment of urothelial carcinoma” (Janssen Pharmaceutica NV, priority 2019, dated 2026)

Test system: metastatic or surgically unresectable urothelial cancer harboring select FGFR genetic alterations
Assay: Phase 2 study NCT02365597: progression-free survival (Kaplan-Meier), investigator assessment
Type: in vivo, human
Experimental: The term “progression-free survival” is defined as the time from first dose to date of documented evidence of disease progression or death, whichever comes first.
Patients were contacted every 12 weeks for survival assessment.
The study was designed to enroll 180 patients with specified FGFR alterations. Of these, ≥88 were required in the selected regimen. […] Responses were assessed by investigators and an independent radiological review committee. Progression-free survival and overall survival were estimated using Kaplan-Meier product limit method. Data from patients who were progression free and alive or with unknown status were censored at last tumor assessment. Efficacy end points were analysed at primary analysis cut-off.

[1] = FGFR fusions (excluding mutations), 6 mg QD
[2] = FGFR fusions (excluding mutations), 8 mg QD
[3] = FGFR fusions (excluding mutations), 10 mg 7 on/7 off
[4] = FGFR fusions (excluding mutations), Total
[5] = FGFR mutations (excluding fusions), 6 mg QD
[6] = FGFR mutations (excluding fusions), 8 mg QD
[7] = FGFR mutations (excluding fusions), 10 mg 7 on/7 off
[8] = FGFR mutations (excluding fusions), Total
[9] = FGFR mutations and fusions, 6 mg QD
[10] = FGFR mutations and fusions, 10 mg 7 on/7 off
[11] = FGFR mutations and fusions, Total

Structure (SMILES): COc1cc(OC)cc(N(CCNC(C)C)c2ccc3ncc(-c4cnn(C)c4)nc3c2)c1 [erdafitinib, N-(3,5-dimethoxy-phenyl)-N′-(1-methylethyl)-N-[3-(1-methyl-1H-pyrazol-4-yl)quinoxalin-6-yl]ethane-1,2-diamine]
- 6-month progression-free survival rate (95% CI) [1]: 0.40 (0.12, 0.67)
- 12-month progression-free survival rate (95% CI) [1]: 0.20 (0.03, 0.47)
- 18-month progression-free survival rate (95% CI) [1]: 0.10 (0.01, 0.36)
- Progression-free survival, Median (95% CI) [1]: 5.54 (0.46, 11.10) months
- Progression-free survival, Q1 [1]: 4.50 months
- 6-month progression-free survival rate (95% CI) [2]: 0.25 (0.10, 0.44)
- 12-month progression-free survival rate (95% CI) [2]: 0.15 (0.04, 0.33)
- 18-month progression-free survival rate (95% CI) [2]: 0 (NE, NE)
- Progression-free survival, Median (95% CI) [2]: 2.76 (1.51, 5.45) months
- Progression-free survival, Q1 [2]: 1.35 months
- Progression-free survival, Q3 [2]: 6.64 months
- 6-month progression-free survival rate (95% CI) [3]: 0 (NE, NE)
- 12-month progression-free survival rate (95% CI) [3]: 0 (NE, NE)
- 18-month progression-free survival rate (95% CI) [3]: 0 (NE, NE)
- Progression-free survival, Median (95% CI) [3]: 2.09 (1.41, 2.76) months
- Progression-free survival, Q1 [3]: 1.41 months
- Progression-free survival, Q3 [3]: 2.76 months
- 6-month progression-free survival rate (95% CI) [4]: 0.28 (0.15, 0.44)
- 12-month progression-free survival rate (95% CI) [4]: 0.15 (0.05, 0.29)
- 18-month progression-free survival rate (95% CI) [4]: 0.05 (0.00, 0.19)
- Progression-free survival, Median (95% CI) [4]: 4.27 (2.56, 5.52) months
- Progression-free survival, Q1 [4]: 1.51 months
- Progression-free survival, Q3 [4]: 7.00 months
- 6-month progression-free survival rate (95% CI) [5]: 0.22 (0.12, 0.33)
- 12-month progression-free survival rate (95% CI) [5]: 0.07 (0.02, 0.16)
- 18-month progression-free survival rate (95% CI) [5]: 0.05 (0.01, 0.14)
- Progression-free survival, Median (95% CI) [5]: 5.09 (2.83, 5.42) months
- Progression-free survival, Q1 [5]: 1.77 months
- Progression-free survival, Q3 [5]: 5.55 months
- 6-month progression-free survival rate (95% CI) [6]: 0.41 (0.29, 0.53)
- 12-month progression-free survival rate (95% CI) [6]: 0.15 (0.06, 0.27)
- Progression-free survival, Median (95% CI) [6]: 5.55 (4.83, 7.26) months
- Progression-free survival, Q1 [6]: 2.83 months
- Progression-free survival, Q3 [6]: 8.44 months
- 6-month progression-free survival rate (95% CI) [7]: 0.25 (0.10, 0.43)
- 12-month progression-free survival rate (95% CI) [7]: 0.17 (0.05, 0.34)
- 18-month progression-free survival rate (95% CI) [7]: 0.08 (0.01, 0.23)
- Progression-free survival, Median (95% CI) [7]: 4.93 (2.73, 5.55) months
- Progression-free survival, Q1 [7]: 2.69 months
- Progression-free survival, Q3 [7]: 7.06 months
- 6-month progression-free survival rate (95% CI) [8]: 0.31 (0.24, 0.39)
- 12-month progression-free survival rate (95% CI) [8]: 0.12 (0.07, 0.19)
- 18-month progression-free survival rate (95% CI) [8]: 0.06 (0.03, 0.12)
- Progression-free survival, Median (95% CI) [8]: 5.36 (4.21, 5.52) months
- Progression-free survival, Q1 [8]: 2.73 months
- Progression-free survival, Q3 [8]: 8.25 months
- 6-month progression-free survival rate (95% CI) [9]: 0.50 (0.06, 0.84)
- 12-month progression-free survival rate (95% CI) [9]: 0.50 (0.06, 0.84)
- Progression-free survival, Median (95% CI) [9]: 9.10 (0.39, NE) months
- Progression-free survival, Q1 [9]: 2.97, NE months
- 6-month progression-free survival rate (95% CI) [10]: 0 (NE, NE)
- 12-month progression-free survival rate (95% CI) [10]: 0 (NE, NE)
- 18-month progression-free survival rate (95% CI) [10]: 0 (NE, NE)
- Progression-free survival, Median (95% CI) [10]: 5.45 (1.45, 5.52) months
- Progression-free survival, Q1 [10]: 1.45 months
- Progression-free survival, Q3 [10]: 5.52 months
- 6-month progression-free survival rate (95% CI) [11]: 0.29 (0.04, 0.61)
- 12-month progression-free survival rate (95% CI) [11]: 0.29 (0.04, 0.61)
- Progression-free survival, Median (95% CI) [11]: 5.52 (0.39, 12.65) months
- Progression-free survival, Q1 [11]: 1.45 months
- Progression-free survival, Q3 [11]: 12.65 months
- Median (95% CI) progression-free survival per investigator assessment (Regimen 1, 10 mg intermittent): 4.8 (2.7 to 5.5) months
- Progression-free survival rate at 12 months (Regimen 1, 10 mg intermittent): 18%
- Median (95% CI) progression-free survival per investigator assessment (Regimen 2, 6 mg continuous): 5.3 (4.1 to 5.5) months
- Progression-free survival rate at 12 months (Regimen 2, 6 mg continuous): 11%
- Progression-free survival rate at 12 months (Regimen 3, 8 mg continuous): 19%
- median progression-free survival (Regimen 3, 8 mg continuous): 5.5 months
